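Assay format: 96-well plates, 48-hour exposure. The concentration for 50% growth inhibition is given as GI50.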 Active and inactive are the calls of the source. No stated cut-off is given here; in the data, active = GI50 up to about 1.1 µM and inactive = higher.
Key:
Experiment in all cases: DTP human tumour cell line panel, 48 h
[1] = test system: SK-OV-3
[2] = test system: MOLT-4
[3] = test system: HCC 2998
[4] = test system: KM12
[5] = test system: HL-60
[6] = test system: ACHN
[7] = test system: OVCAR-4
[8] = test system: 786-0
[9] = test system: OVCAR-5
[10] = test system: EKVX
[11] = test system: UO-31
[12] = test system: M14
[13] = test system: NCI-H23
[14] = test system: A498
[15] = test system: DU-145
[16] = test system: SF-539
[17] = test system: OVCAR-8
[18] = test system: K562
[19] = test system: UACC-62
[20] = test system: SR

## COC(=O)C1=CC2C(=O)c3ccccc3C1(c1ccccc1)N2C1CCCCC1 (stereo not drawn)
[1]
  GI50: 31 µM (inactive)
[2]
  GI50: 7.55 µM (inactive)
[3]
  GI50: 3.15 µM (inactive)
[4]
  GI50: 14.3 µM (inactive)
[5]
  GI50: 11.6 µM (inactive)
[6]
  GI50: 16.2 µM (inactive)
[7]
  GI50: 17.1 µM (inactive)
[8]
  GI50: > 100 µM (inactive)
[9]
  GI50: 32.3 µM (inactive)
[10]
  GI50: 34.9 µM (inactive)
[11]
  GI50: 15.1 µM (inactive)
[12]
  GI50: 20 µM (inactive)
[13]
  GI50: 18.7 µM (inactive)
[14]
  GI50: 26.7 µM (inactive)
[15]
  GI50: 27 µM (inactive)
[16]
  GI50: 20.6 µM (inactive)
[17]
  GI50: 27 µM (inactive)
[18]
  GI50: 4.63 µM (inactive)

## Oc1ccc2c(c1)CCc1c-2n(CCN2CCOCC2)c2ccc(O)cc12
[1]
  GI50: 46.3 µM (inactive)
[2]
  GI50: 33.4 µM (inactive)
[4]
  GI50: 20.8 µM (inactive)
[5]
  GI50: 55.6 µM (inactive)
[6]
  GI50: 16.1 µM (inactive)
[8]
  GI50: 43.5 µM (inactive)
[9]
  GI50: 78.3 µM (inactive)
[10]
  GI50: 38.8 µM (inactive)
[11]
  GI50: 10.4 µM (inactive)
[12]
  GI50: 39 µM (inactive)
[13]
  GI50: 27.7 µM (inactive)
[14]
  GI50: 14.9 µM (inactive)
[19]
  GI50: 20.6 µM (inactive)
[15]
  GI50: 33 µM (inactive)
[16]
  GI50: 27.9 µM (inactive)
[17]
  GI50: 20.2 µM (inactive)
[20]
  GI50: > 100 µM (inactive)
[18]
  GI50: 41.6 µM (inactive)

## C=C1CC/C=C(/C(=O)O)CC[C@H]2[C@@H]1CC2(C)C
[1]
  GI50: > 100 µM (inactive)
[2]
  GI50: > 100 µM (inactive)
[3]
  GI50: > 100 µM (inactive)
[4]
  GI50: > 100 µM (inactive)
[5]
  GI50: > 100 µM (inactive)
[6]
  GI50: > 100 µM (inactive)
[7]
  GI50: > 100 µM (inactive)
[8]
  GI50: > 100 µM (inactive)
[9]
  GI50: > 100 µM (inactive)
[10]
  GI50: > 100 µM (inactive)
[11]
  GI50: > 100 µM (inactive)
[12]
  GI50: > 100 µM (inactive)
[13]
  GI50: > 100 µM (inactive)
[14]
  GI50: > 100 µM (inactive)
[19]
  GI50: > 100 µM (inactive)
[15]
  GI50: > 100 µM (inactive)
[16]
  GI50: > 100 µM (inactive)
[18]
  GI50: > 100 µM (inactive)

## COc1ccc(N[S+]([O-])c2ccc(-c3ccccc3)cc2)cc1 (stereo not drawn)
[2]
  GI50: > 100 µM (inactive)
[3]
  GI50: > 100 µM (inactive)
[4]
  GI50: 70.3 µM (inactive)
[5]
  GI50: > 100 µM (inactive)
[6]
  GI50: > 100 µM (inactive)
[8]
  GI50: > 10 µM (inactive)
[9]
  GI50: > 100 µM (inactive)
[10]
  GI50: > 100 µM (inactive)
[11]
  GI50: > 100 µM (inactive)
[12]
  GI50: 86.1 µM (inactive)
[13]
  GI50: 46 µM (inactive)
[15]
  GI50: > 100 µM (inactive)
[16]
  GI50: > 100 µM (inactive)
[17]
  GI50: 29.5 µM (inactive)
[20]
  GI50: > 100 µM (inactive)
[18]
  GI50: > 100 µM (inactive)

## CCOC(=O)C1(C/C=C/CCl)CCCC1=O (stereo not drawn)
[1]
  GI50: 33.3 µM (inactive)
[2]
  GI50: 35.1 µM (inactive)
[4]
  GI50: 20 µM (inactive)
[5]
  GI50: 38.2 µM (inactive)
[6]
  GI50: 15.3 µM (inactive)
[7]
  GI50: 29.6 µM (inactive)
[8]
  GI50: 22.8 µM (inactive)
[9]
  GI50: 17.8 µM (inactive)
[10]
  GI50: 19.5 µM (inactive)
[11]
  GI50: 20 µM (inactive)
[12]
  GI50: 18.1 µM (inactive)
[13]
  GI50: 18.8 µM (inactive)
[14]
  GI50: 25.2 µM (inactive)
[19]
  GI50: 14.1 µM (inactive)
[15]
  GI50: 31.1 µM (inactive)
[16]
  GI50: 20.7 µM (inactive)
[17]
  GI50: 20.8 µM (inactive)

## CC(C)=CCC[C@@H](C)/C=C/C=C(\C)C(=O)CC[C@@H]1CC[N@+]2(C)CCCC[C@H]12
[2]
  GI50: > 100 µM (inactive)
[3]
  GI50: > 100 µM (inactive)
[4]
  GI50: > 100 µM (inactive)
[6]
  GI50: > 100 µM (inactive)
[7]
  GI50: > 100 µM (inactive)
[8]
  GI50: > 100 µM (inactive)
[9]
  GI50: 50.4 µM (inactive)
[10]
  GI50: > 100 µM (inactive)
[11]
  GI50: > 100 µM (inactive)
[12]
  GI50: > 100 µM (inactive)
[13]
  GI50: > 100 µM (inactive)
[14]
  GI50: > 100 µM (inactive)
[19]
  GI50: > 100 µM (inactive)
[15]
  GI50: > 100 µM (inactive)
[16]
  GI50: > 100 µM (inactive)
[17]
  GI50: > 100 µM (inactive)
[20]
  GI50: > 100 µM (inactive)
[18]
  GI50: 49.9 µM (inactive)

## NC(Cc1ccc(S(=O)(=O)O)cc1)C(=O)NC(CCCCNC(=O)NCCCCC(NC(=O)C(N)Cc1ccc(S(=O)(=O)O)cc1)C(=O)NC(Cc1ccc(S(=O)(=O)O)cc1)C(=O)O)C(=O)NC(Cc1ccc(S(=O)(=O)O)cc1)C(=O)O (stereo not drawn)
[1]
  GI50: > 100 µM (inactive)
[2]
  GI50: > 100 µM (inactive)
[3]
  GI50: > 100 µM (inactive)
[4]
  GI50: > 100 µM (inactive)
[5]
  GI50: > 100 µM (inactive)
[6]
  GI50: > 100 µM (inactive)
[7]
  GI50: > 100 µM (inactive)
[8]
  GI50: > 100 µM (inactive)
[9]
  GI50: > 100 µM (inactive)
[10]
  GI50: > 100 µM (inactive)
[11]
  GI50: > 100 µM (inactive)
[12]
  GI50: > 100 µM (inactive)
[13]
  GI50: > 100 µM (inactive)
[14]
  GI50: > 100 µM (inactive)
[19]
  GI50: > 100 µM (inactive)
[15]
  GI50: > 100 µM (inactive)
[16]
  GI50: > 100 µM (inactive)
[17]
  GI50: > 100 µM (inactive)
[18]
  GI50: > 100 µM (inactive)

## COc1cc2c(cc1OC)C(=O)/C(=C/c1cc(C)cc(C)c1)C2
[1]
  GI50: 0.308 µM (active)
[2]
  GI50: 0.504 µM (active)
[3]
  GI50: 0.0601 µM (active)
[4]
  GI50: < 0.0203 µM (active)
[5]
  GI50: < 0.0244 µM (active)
[6]
  GI50: 12.9 µM (inactive)
[7]
  GI50: 19.8 µM (inactive)
[8]
  GI50: 0.0982 µM (active)
[9]
  GI50: 1.09 µM (active)
[10]
  GI50: 1.29 µM (inactive)
[11]
  GI50: 1.95 µM (inactive)
[12]
  GI50: 0.148 µM (active)
[13]
  GI50: 0.313 µM (active)
[14]
  GI50: 0.131 µM (active)
[19]
  GI50: 0.0443 µM (active)
[15]
  GI50: 0.198 µM (active)
[16]
  GI50: 0.0871 µM (active)
[17]
  GI50: 0.175 µM (active)
[18]
  GI50: 0.0232 µM (active)

Source: ChEMBL document CHEMBL1201862, “PubChem BioAssay data set” (2004)
